Test results as given in patent US6362369B1, “Phthalic acid diamide derivatives fluorine-containing aniline compounds as starting material, agricultural and horticultural insecticides, and a method for application of the insecticides” (Nihon Nohyaku Co., Ltd., priority 1997, dated 2002).

Legend:
Assay type in all cases: in vivo
[1] = test system: common cutworm (Spodoptera Litura); experiment: Insecticidal effect on common cutworm (Test Example 2); conditions: 500 ppm, 25° C.; for Insecticidal effect on common cutworm (Test Example 2), judged grade / Insecticidal effect (Test Example 2), judged from mortality: cabbage leaf dip; for Insecticidal effect on common cutworm (Test Example 2), judged grade: second-instar larvae; for Insecticidal effect on common cutworm (Test Example 2), judged grade / Insecticidal effect, Test Example 2: eight days after inoculation; for Insecticidal effect, Test Example 2: cabbage leaf immersed; for Insecticidal effect (Test Example 2), judged from mortality: 8 days after inoculation
How it was run: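 Insecticidal effect was rated from percent mortality of second-instar larvae exposed to air-dried treatment at 25° C for 8 days.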

[2] = test system: rice leafroller (Cnaphalocrocis medinalis); experiment: Insecticidal effect on rice leafroller (Test Example 3); conditions: 500 ppm, 25° C., humidity 70%; for Insecticidal effect on rice leafroller (Test Example 3), judged grade / Insecticidal effect (Test Example 3), judged from mortality: rice lamina dip; for Insecticidal effect on rice leafroller (Test Example 3), judged grade: third-instar larvae; for Insecticidal effect on rice leafroller (Test Example 3), judged grade / Insecticidal effect, Test Example 3: four days after inoculation; for Insecticidal effect, Test Example 3: rice lamina immersed; for Insecticidal effect (Test Example 3), judged from mortality: 4 days after inoculation
How it was run: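 Groups of 10 third-instar larvae, in triplicate, are placed on air-dried lamina resting on wet filter paper. Incubation runs four days at 25° C with 70% humidity before survivors and dead are tallied.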

[3] = test system: diamondback moth (Plutella xylostella); experiment: Insecticidal effect on diamondback moth (Test Example 1); conditions: for Insecticidal effect on diamondback moth (Test Example 1), judged grade: mortality judged according to the criterion shown in Test Example 1; for Insecticidal effect, Test Example 1 / Insecticidal effect (Test Example 1), judged from mortality: diamondback moth; for Insecticidal effect (Test Example 1), judged from mortality: judged by the criterion of Test Example 1
How it was run: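 Read-out was mortality from hatched-insect counts taken 6 days after the egg-bearing cabbage seedling was immersed, graded by set criteria. Seedlings were air-dried and kept at 25° C after treatment. Groups of 10 insects, in triplicate.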

[4] = second-instar larvae of common cutworm
[5] = third-instar larvae of rice leafroller
[6] = judged by the mortality criterion of Test Example 1
[7] = common cutworm second-instar larvae
[8] = rice leafroller third-instar larvae
[9] = mortality judged by criterion of Test Example 1

## Cc1cc(OC(F)(F)C(F)Cl)ccc1NC(=O)c1cccc(F)c1C(=O)NC(C)C (stereo not drawn) [compound 513]
[1]
  Insecticidal effect on common cutworm (Test Example 2), judged grade: A (100)
[2]
  Insecticidal effect on rice leafroller (Test Example 3), judged grade: A (100)
[3]
  Insecticidal effect on diamondback moth (Test Example 1), judged grade: A (100)

## Cc1cc(OC(F)(F)C(Cl)(Cl)Cl)ccc1NC(=O)c1c(Cl)cccc1C(=O)NC(C)C [compound 222]
[1]; [4]
  Insecticidal effect, Test Example 2: B (99-90)
[2]; [5]
  Insecticidal effect, Test Example 3: A (100)
[3]; [6]
  Insecticidal effect, Test Example 1: A (100)

## Cc1cc(OC(F)F)ccc1NC(=O)c1cccc(Cl)c1C(=O)NC1CC1 [compound 849]
[1]
  Insecticidal effect on common cutworm (Test Example 2), judged grade: B (99-90)
[2]
  Insecticidal effect on rice leafroller (Test Example 3), judged grade: A (100)
[3]
  Insecticidal effect on diamondback moth (Test Example 1), judged grade: A (100)

## CC(C)(C)NC(=O)c1c(I)cccc1C(=O)Nc1ccc2c(c1Cl)OC(F)(F)C(F)(F)O2 [compound 1644]
[1]; [4]
  Insecticidal effect (Test Example 2), judged from mortality: A (100)
[2]; [5]
  Insecticidal effect (Test Example 3), judged from mortality: A (100)
[3]
  Insecticidal effect (Test Example 1), judged from mortality: A (100)

## Cc1cc(OC(F)F)ccc1NC(=O)c1cccc(I)c1C(=O)NC(C)(C)C [compound 1020]
[1]; [7]
  Insecticidal effect, Test Example 2: A (100)
[2]; [8]
  Insecticidal effect, Test Example 3: A (100)
[3]; [9]
  Insecticidal effect, Test Example 1: A (100)

## Cc1cc(C(F)(F)C(F)(F)F)ccc1NC(=O)c1ccccc1C(=O)NC(C)(C)C [compound 931]
[1]
  Insecticidal effect on common cutworm (Test Example 2), judged grade: A (100)
[2]
  Insecticidal effect on rice leafroller (Test Example 3), judged grade: A (100)
[3]
  Insecticidal effect on diamondback moth (Test Example 1), judged grade: A (100)

## Cc1c(NC(=O)c2cccc(F)c2C(=O)NC(C)C)cccc1OC(F)F [compound 499]
[1]
  Insecticidal effect on common cutworm (Test Example 2), judged grade: A (100)
[2]
  Insecticidal effect on rice leafroller (Test Example 3), judged grade: A (100)
[3]
  Insecticidal effect on diamondback moth (Test Example 1), judged grade: A (100)

## CC(C)NC(=O)c1c(I)cccc1C(=O)Nc1ccc(C(F)(F)C(F)(F)F)cc1C(F)(F)F [compound 1387]
[1]; [7]
  Insecticidal effect, Test Example 2: A (100)
[2]; [8]
  Insecticidal effect, Test Example 3: A (100)
[3]; [9]
  Insecticidal effect, Test Example 1: A (100)

## Cc1cc(Cl)ccc1NC(=O)c1cccc(I)c1C(=O)NC(C)C [compound 362]
[1]; [4]
  Insecticidal effect, Test Example 2: A (100)
[2]; [5]
  Insecticidal effect, Test Example 3: A (100)
[3]; [6]
  Insecticidal effect, Test Example 1: A (100)

## CC(C)(C)NC(=O)c1c(I)cccc1C(=O)Nc1ccc2c(c1)OC(F)(F)O2 [compound 1105]
[1]; [7]
  Insecticidal effect, Test Example 2: A (100)
[2]; [8]
  Insecticidal effect, Test Example 3: A (100)
[3]; [9]
  Insecticidal effect, Test Example 1: A (100)

## Cc1cc(Oc2cccc(C(F)(F)F)c2)ccc1NC(=O)c1cccc(F)c1C(=O)NC(C)C [compound 519]
[1]
  Insecticidal effect on common cutworm (Test Example 2), judged grade: A (100)
[2]
  Insecticidal effect on rice leafroller (Test Example 3), judged grade: A (100)
[3]
  Insecticidal effect on diamondback moth (Test Example 1), judged grade: A (100)

## Cc1cc(OC(F)(F)Br)ccc1NC(=O)c1cccc([N+](=O)[O-])c1C(=O)NC(C)C [compound 711]
[1]
  Insecticidal effect on common cutworm (Test Example 2), judged grade: C (89-80)
[2]
  Insecticidal effect on rice leafroller (Test Example 3), judged grade: A (100)
[3]
  Insecticidal effect on diamondback moth (Test Example 1), judged grade: A (100)

## Cc1cc(Cl)ccc1NC(=O)c1ccc(Cl)cc1C(=O)NC(C)C [compound 177]
[1]; [4]
  Insecticidal effect, Test Example 2: A (100)
[2]; [5]
  Insecticidal effect, Test Example 3: A (100)
[3]; [6]
  Insecticidal effect, Test Example 1: A (100)

## Cc1cc(OC(F)(F)C(F)F)ccc1NC(=O)c1cccc(I)c1C(=O)NC(C)(C)C [compound 1062]
[1]; [7]
  Insecticidal effect, Test Example 2: A (100)
[2]; [8]
  Insecticidal effect, Test Example 3: A (100)
[3]; [9]
  Insecticidal effect, Test Example 1: A (100)

## CCN(CC)C(=O)c1c(Cl)cccc1C(=O)Nc1ccc(C(F)(F)C(F)(F)F)cc1Cl [compound 1540]
[1]; [4]
  Insecticidal effect (Test Example 2), judged from mortality: A (100)
[2]; [5]
  Insecticidal effect (Test Example 3), judged from mortality: A (100)
[3]
  Insecticidal effect (Test Example 1), judged from mortality: A (100)

## Cc1cc(C(F)(C(F)(F)F)C(F)(F)F)ccc1NC(=O)c1cccc(I)c1C(=O)NC(C)c1cccs1 (stereo not drawn) [compound 1800]
[1]; [4]
  Insecticidal effect (Test Example 2), judged from mortality: A (100)
[2]; [5]
  Insecticidal effect (Test Example 3), judged from mortality: A (100)
[3]
  Insecticidal effect (Test Example 1), judged from mortality: A (100)

## Cc1cc(OC(F)(F)C(F)C(F)(F)F)ccc1NC(=O)c1cccc(F)c1C(=O)NC(C)C (stereo not drawn) [compound 514]
[1]
  Insecticidal effect on common cutworm (Test Example 2), judged grade: A (100)
[2]
  Insecticidal effect on rice leafroller (Test Example 3), judged grade: A (100)
[3]
  Insecticidal effect on diamondback moth (Test Example 1), judged grade: A (100)

## CCc1cc(C(F)(F)C(F)(F)F)ccc1NC(=O)c1cccc(Cl)c1C(=O)NC(C)CC (stereo not drawn) [compound 1501]
[1]; [4]
  Insecticidal effect (Test Example 2), judged from mortality: A (100)
[2]; [5]
  Insecticidal effect (Test Example 3), judged from mortality: A (100)
[3]
  Insecticidal effect (Test Example 1), judged from mortality: A (100)

## CCC(C)(C)NC(=O)c1c(F)cccc1C(=O)Nc1ccc(OC(F)(F)F)cc1C [compound 1154]
[1]; [7]
  Insecticidal effect, Test Example 2: C (89-80)
[2]; [8]
  Insecticidal effect, Test Example 3: A (100)
[3]; [9]
  Insecticidal effect, Test Example 1: A (100)

## CC(C)NC(=O)c1c(Cl)cccc1C(=O)Nc1ccc2c(c1Cl)OC(F)(F)C(F)(F)O2 [compound 1642]
[1]; [4]
  Insecticidal effect (Test Example 2), judged from mortality: A (100)
[2]; [5]
  Insecticidal effect (Test Example 3), judged from mortality: A (100)
[3]
  Insecticidal effect (Test Example 1), judged from mortality: A (100)

## CSc1cc(NC(=O)c2cccc(I)c2C(=O)NC(C)C)ccc1C(F)(C(F)(F)F)C(F)(F)F [compound 1766]
[1]; [4]
  Insecticidal effect (Test Example 2), judged from mortality: A (100)
[2]; [5]
  Insecticidal effect (Test Example 3), judged from mortality: A (100)
[3]
  Insecticidal effect (Test Example 1), judged from mortality: A (100)

## CC(C)NC(=O)c1c(I)cccc1C(=O)Nc1ccc2c(c1)OC(F)(F)C2(F)F [compound 974]
[1]; [7]
  Insecticidal effect, Test Example 2: A (100)
[2]; [8]
  Insecticidal effect, Test Example 3: A (100)
[3]; [9]
  Insecticidal effect, Test Example 1: A (100)

## Cc1cc(OC(F)(F)C(F)(Br)C(F)(F)F)ccc1NC(=O)c1c(F)cccc1C(=O)NC(C)C (stereo not drawn) [compound 569]
[1]
  Insecticidal effect on common cutworm (Test Example 2), judged grade: A (100)
[2]
  Insecticidal effect on rice leafroller (Test Example 3), judged grade: A (100)
[3]
  Insecticidal effect on diamondback moth (Test Example 1), judged grade: A (100)

## Cc1cc(OC(F)(F)C(Cl)(Cl)Cl)ccc1NC(=O)c1cccc(F)c1C(=O)NC(C)C [compound 501]
[1]
  Insecticidal effect on common cutworm (Test Example 2), judged grade: A (100)
[2]
  Insecticidal effect on rice leafroller (Test Example 3), judged grade: A (100)
[3]
  Insecticidal effect on diamondback moth (Test Example 1), judged grade: A (100)

## CC(C)NC(=O)c1c(F)cccc1C(=O)Nc1ccc(C(F)(C(F)(F)F)C(F)(F)F)cc1Cl [compound 507]
[1]
  Insecticidal effect on common cutworm (Test Example 2), judged grade: B (99-90)
[2]
  Insecticidal effect on rice leafroller (Test Example 3), judged grade: A (100)
[3]
  Insecticidal effect on diamondback moth (Test Example 1), judged grade: A (100)

## CCc1cc(OC(F)(F)F)ccc1NC(=O)c1cccc(Cl)c1C(=O)NC(C)C [compound 1209]
[1]; [7]
  Insecticidal effect, Test Example 2: D (79-50)
[2]; [8]
  Insecticidal effect, Test Example 3: A (100)
[3]; [9]
  Insecticidal effect, Test Example 1: A (100)

## Cc1cc(Oc2ccc(C(F)(F)F)cn2)ccc1NC(=O)c1cccc(I)c1C(=O)NC(C)C [compound 399]
[1]; [4]
  Insecticidal effect, Test Example 2: A (100)
[2]; [5]
  Insecticidal effect, Test Example 3: A (100)
[3]; [6]
  Insecticidal effect, Test Example 1: A (100)

## CCNC(=O)c1c(I)cccc1C(=O)Nc1ccc(OC(F)(F)C(F)F)cc1C [compound 1056]
[1]; [7]
  Insecticidal effect, Test Example 2: A (100)
[2]; [8]
  Insecticidal effect, Test Example 3: A (100)
[3]; [9]
  Insecticidal effect, Test Example 1: A (100)

## C#CC(C)(C)NC(=O)c1c(I)cccc1C(=O)Nc1ccc(OC(F)(F)F)cc1C [compound 1634]
[1]; [4]
  Insecticidal effect (Test Example 2), judged from mortality: A (100)
[2]; [5]
  Insecticidal effect (Test Example 3), judged from mortality: A (100)
[3]
  Insecticidal effect (Test Example 1), judged from mortality: A (100)

## CC(C)NC(=O)c1cccc(I)c1C(=O)Nc1ccc(C(F)(F)C(F)(F)C(F)(F)F)cc1Cl [compound 468]
[1]
  Insecticidal effect on common cutworm (Test Example 2), judged grade: A (100)
[2]
  Insecticidal effect on rice leafroller (Test Example 3), judged grade: B (99-90)
[3]
  Insecticidal effect on diamondback moth (Test Example 1), judged grade: A (100)

## Cc1ccc(F)cc1NC(=O)c1cccc([N+](=O)[O-])c1C(=O)NCCF [compound 862]
[1]
  Insecticidal effect on common cutworm (Test Example 2), judged grade: D (79-50)
[2]
  Insecticidal effect on rice leafroller (Test Example 3), judged grade: D (79-50)
[3]
  Insecticidal effect on diamondback moth (Test Example 1), judged grade: A (100)

## CCNC(=O)c1c(I)cccc1C(=O)Nc1ccc(C(F)(F)C(F)(F)F)cc1Cl [compound 1503]
[1]; [4]
  Insecticidal effect (Test Example 2), judged from mortality: C (89-80)
[2]; [5]
  Insecticidal effect (Test Example 3), judged from mortality: A (100)
[3]
  Insecticidal effect (Test Example 1), judged from mortality: A (100)

## Cc1c(Cl)cccc1NC(=O)c1c(Br)cccc1C(=O)NC(C)C [compound 305]
[1]; [4]
  Insecticidal effect, Test Example 2: A (100)
[2]; [5]
  Insecticidal effect, Test Example 3: A (100)
[3]; [6]
  Insecticidal effect, Test Example 1: A (100)

## Cc1ccc(Cl)cc1NC(=O)c1cccc([N+](=O)[O-])c1C(=O)NC(C)(C)C [compound 842]
[1]
  Insecticidal effect on common cutworm (Test Example 2), judged grade: A (100)
[2]
  Insecticidal effect on rice leafroller (Test Example 3), judged grade: D (79-50)
[3]
  Insecticidal effect on diamondback moth (Test Example 1), judged grade: A (100)

## Cc1cc(C(F)(F)C(F)(F)F)ccc1NC(=O)c1cccc(I)c1C(=O)NCc1ccccc1Cl [compound 1402]
[1]; [7]
  Insecticidal effect, Test Example 2: A (100)
[2]; [8]
  Insecticidal effect, Test Example 3: A (100)
[3]; [9]
  Insecticidal effect, Test Example 1: A (100)
